Data on three compounds can be found in patent publication US11478482B2 (NATIONAL UNIVERSITY CORPORATION TOKAI NATIONAL HIGHER …, priority 2018, dated 2022).

In data set [1] the test system is Meth-treated mice (C57BL/6). The experiment in a line: Meth-induced visual discrimination learning impairment in C57BL/6 mice (wild type). It counts as in vivo. The settings on record: for Meth-induced (1.0 mg/kg) visual discrimination impairment: meth-treated C57BL/6 mice.
The subject of data set [2] is MK-801-treated mice. Put plainly: Social behavior test in MK-801-treated mice. In kind it is in vivo. The procedure:
Before conducting the experiment, test mice were kept in breeding cages one by one for 2 days. On the third day, mice that had been normally group-reared in another breeding cage were placed as invading mice into the cages of the test mice, and social behaviors of the test mice, such as tracking and sniffing, were measured for 5 minutes (Ibi et al., 2010).

For data set [3], the system named is MK-801-treated mice. The experiment in a line: Visual discrimination test in MK-801-treated mice.
For data set [4], the system named is dopaminergic neurons induced from iPS cells of patients with ARHGAP10 mutation. Put plainly: Neurite length of iPS cell-derived dopaminergic neurons (IncuCyte NeuroTrack). It counts as cell-based, human. The note with it: 72 hours after addition of inhibitor. The procedure:
Dopaminergic neurons were induced from iPS cells of healthy subjects and patients with ARGHAP10 mutation. The induction method was performed according to a method already published (Transl Psychiatry. 2018 Jul. 19; 8(1): 129; and patent application PCT/JP2018/015304). To give an overview, iPS cells were cultured in an iPS cell medium supplemented with SB431542 (3 μM), CHIR99021 (3 μM), and dorsomorphin (3 μM) for 7 days (day 0 to day 7). The cultured cells were then dispersed with TrypLE™ select (Thermo Fisher Scientific Inc.) and passed through a cell strainer. […]
Dopaminergic progenitor cells were seeded onto a culture dish coated with poly-L-ornithine/laminin/fibronectin (poly-L-ornithine, laminin, and fibronectin), and an Rho kinase inhibitor was added simultaneously. […] The length of neurites after 72 hours was automatically measured with IncuCyte NeuroTrack (registered trademark).
Dopaminergic neurons were induced from iPS cells derived from healthy subjects and patients with ARHGAP10 mutation. […] The length of neurites was automatically detected and measured with IncuCyte (registered trademark) NeuroTrack (produced by Essen Bioscience).
The length of neurites (mm) per mm^2 was calculated for each field of view, and analysis was performed for 18 fields of view in each group. […]

Data set [5] relates to MK-801-treated mice. The experiment in a line: MK-801-induced hyperactivity (hypermobility). The note with it: MK-801 0.3 mg/kg. In kind it is in vivo. Here is the method:
(§1) Mice were placed one by one in measurement cages (25 cm×30 cm×18 cm). Immediately after the placement, spontaneous locomotor activity of mice was measured using a measurement device equipped with infrared light (Brain Science Idea, Osaka, Japan) (Ibi et al., 2010).
After 5 minutes, MK-801 (0.3 mg/kg) was intraperitoneally administered. The amount of locomotor activity started to be measured immediately after the administration (FIG. 6, panel A).

The test system of another data set is ARHGAP10 mutant mice. The experiment in a line: Meth-induced visual discrimination learning impairment in ARHGAP10 mutant mice. It counts as in vivo. The settings on record: patient-type ARHGAP10 mutant mice.
A further data set has as its system C57BL/6 mice. Put plainly: Spontaneous locomotor activity. It counts as in vivo. The procedure:
as §1

Setting [6] is: fasudil 20 mg/kg i.p., listed as Fasudil, monohydrochloride hemihydrate.
Setting [7] is: fasudil 20 mg/kg i.p., monohydrochloride hemihydrate.

Counter-ions that a name gives are not always drawn.

For Methamphetamine hydrochloride, the “correct response rate in the visual discrimination learning test” value in data set [1] (meth 1.0 mg/kg, C57BL/6 mice, saline-treated about 90%) is listed as “about 70%”.

Turning to `C[C@]12N[C@H](Cc3ccccc31)c1ccccc12` [MK-801, (+)-MK-801 maleate], the “time of social behavior” value with MK-801-treated mice [2] (MK-801 0.1 mg/kg i.p., compared with control mice) is reported as “significantly reduced”. Besides, in the data set on MK-801-treated mice [3] (MK-801 0.1 mg/kg i.p., C57BL/6 mice, saline-treated 90%), the “correct response rate in the visual discrimination learning test” value is listed as “about 70%”.

On to `O=S(=O)(c1cccc2cnccc12)N1CCCNCC1` [fasudil, hexahydro-1-(5-isoquinolinesulfonyl)-1H-1,4-diazepine monohydrochloride hemihydrate], for which the “MK-801-induced social behavior disorder” value is given as “±” with MK-801-treated mice [2] (fasudil 5 mg/kg i.p., MK-801 0.1 mg/kg); “Improved” in the data set on MK-801-treated mice [2] (fasudil 10 mg/kg i.p., MK-801 0.1 mg/kg, listed as Fasudil, monohydrochloride hemihydrate); “returned to the same level as the social behavior in control mice” with MK-801-treated mice [2] (fasudil 10 mg/kg i.p., MK-801 0.1 mg/kg, monohydrochloride hemihydrate); “±” in the data set with MK-801-treated mice [2] (fasudil 20 mg/kg i.p.). In addition, the “Meth-induced (1.0 mg/kg) visual discrimination impairment” value is recorded as “Improvement” in data set [1] (fasudil 3 mg/kg i.p.); “Improved” in data set [1] (fasudil 10 mg/kg i.p., listed as Fasudil, monohydrochloride hemihydrate); “improved” in data set [1] (fasudil 10 mg/kg i.p., monohydrochloride hemihydrate); “Improved” in data set [1] (setting [6]); “improved” in data set [1] (setting [7]). Further, the “MK-801-induced (1.0 mg/kg) visual discrimination disorder” value is recorded as “±” in the data set on MK-801-treated mice [3] (fasudil 3 mg/kg i.p.), “Improved” with MK-801-treated mice [3] (setting [6]) and “returned to the control level” in the data set with MK-801-treated mice [3] (setting [7]). The “test completion rate, latency to correct response, latency to obtain the reward” value in the data set on MK-801-treated mice [3] (fasudil 3, 10 or 20 mg/kg i.p., MK-801-treated mice) is reported as “none of the groups showed significant changes”. In data set [4], the length of neurites entry was “improving effects”. Besides, the MK-801-induced hypermobility result in the data set with MK-801-treated mice [5] (fasudil 10 mg/kg i.p.) was “±”; in the data set on MK-801-treated mice [5] (setting [6]), “Improved”; with MK-801-treated mice [5] (setting [7]), “significantly inhibited”. Moreover, the “Meth-induced (0.3 mg/kg) visual discrimination impairment” value in the data set with ARHGAP10 mutant mice (fasudil 3 mg/kg i.p.) is reported as “Improved”; in the data set on ARHGAP10 mutant mice (fasudil 10 mg/kg i.p.), “Improved”; in the data set with ARHGAP10 mutant mice (setting [7]) it was “significantly improved”. For the same compound, the Spontaneous locomotor activity result is reported as “±” in the data set on C57BL/6 mice (fasudil 20 mg/kg i.p., Table 1); “same level of spontaneous locomotor activity as the saline-treated mice” in the data set with C57BL/6 mice (fasudil 20 mg/kg i.p., versus saline-treated mice); “Decreased” in the data set on C57BL/6 mice (fasudil 30 mg/kg i.p., versus saline-treated mice, listed as Fasudil, monohydrochloride hemihydrate); “significant decrease” in the data set on C57BL/6 mice (fasudil 30 mg/kg i.p., versus saline-treated mice, monohydrochloride hemihydrate).
